From ChEMBL document CHEMBL3217755, “Design, synthesis and biological evaluation of biphenyl urea derivatives as novel VEGFR-2 inhibitors” (Medchemcomm, 2013)
pIC50: −log10 of the molar value.

Tests used:
[1] = test system: SK-BR-3; assay: Antiproliferative activity against human SK-BR-3 cells after 48 hrs by MTT assay; assay type: functional, cell-based; conditions: SK-BR-3, 48 h
[2] = test system: A549; assay: Antiproliferative activity against human A549 cells after 48 hrs by MTT assay; assay type: functional, cell-based; conditions: A549, 48 h
[3] = Antiproliferative activity against human SMMC7721 cells after 48 hrs by MTT assay; assay type: functional, cell-based; conditions: SMMC-7721, 48 h
[4] = Antiproliferative activity against human SGC7901 cells after 48 hrs by MTT assay; assay type: functional, cell-based; conditions: SGC-7901, 48 h
[5] = test system: HeLa; assay: Antiproliferative activity against human HeLa cells after 48 hrs by MTT assay; assay type: functional, cell-based
[6] = test system: K562; assay: Antiproliferative activity against human K562 cells after 48 hrs by MTT assay; conditions: K562, 48 h
[7] = test system: LoVo; assay: Antiproliferative activity against human LoVo cells after 48 hrs by MTT assay; assay type: functional, cell-based
[8] = test system: SH-SY5Y; assay: Antiproliferative activity against human SH-SY5Y cells after 48 hrs by MTT assay; assay type: functional, cell-based
[9] = test system: MDA-MB-231; assay: Antiproliferative activity against human MDA-MB-231 cells after 48 hrs by MTT assay; assay type: functional, cell-based; conditions: MDA-MB-231, 48 h

Row | Structure (SMILES) | pIC50 [1] | pIC50 [2] | pIC50 [5] | pIC50 [6] | pIC50 [7] | pIC50 [8] | pIC50 [9] | pIC50 [3] | pIC50 [4]
1 | COc1cc(-c2cc(NC(=O)Nc3ccc(OCCN4CCCC4)cc3)cc(OC)c2OC)ccc1/C(C)=N/O | 4.41 | – | – | 5.32 | 4.31 | – | – | – | –
2 | COc1cc(-c2cc(NC(=O)Nc3ccc(OCCCN4CCOCC4)cc3)cc(OC)c2OC)ccc1/C(C)=N/O | – | 4.93 | 4.03 | 6.54 | – | 5.31 | – | 5.01 | 5.17
3 | CCN(CC)CCOc1ccc(C)c(NC(=O)Nc2cc(OC)c(OC)c(-c3ccc(/C(C)=N/O)c(OC)c3)c2)c1 | 4.83 | 4.95 | – | 5.90 | – | 4.36 | – | – | –
4 | COc1cc(-c2cc(NC(=O)Nc3ccc(OCCN(C)C)cc3)cc(OC)c2OC)ccc1/C(C)=N/O | – | – | 4.20 | 5.07 | – | 5.21 | 4.45 | – | 4.47

The next lines start with results.

Row | pIC50 [1] | pIC50 [2] | pIC50 [5] | pIC50 [6] | pIC50 [7] | pIC50 [8] | pIC50 [9] | Structure (SMILES) | pIC50 [3] | pIC50 [4]
5 | 5.28 | 5.47 | 5.11 | – | – | – | – | CNC(=O)c1cc(Oc2ccc(NC(=O)Nc3ccc(Cl)c(C(F)(F)F)c3)cc2)ccn1 [SORAFENIB] | 5.01 | 3.99
6 | – | 4.93 | 4.87 | 5.89 | 4.32 | 4.74 | 4.69 | CCN(CC)CCOc1ccc(NC(=O)Nc2cc(OC)c(OC)c(-c3ccc(/C(C)=N/O)c(OC)c3)c2)cc1 | 4.44 | 4.24
7 | – | 4.63 | 3.61 | 4.80 | – | 4.74 | 4.31 | COc1cc(-c2cc(NC(=O)Nc3ccc(OCCCN4CCOCC4)cc3C)cc(OC)c2OC)ccc1/C(C)=N/O | 4.48 | –
